Measurements reported in patent publication US8389541B2, “Inhibitors of protein tyrosine kinase activity” (MethylGene Inc., priority 2007, dated 2013).

Key:
c-Met = target: T1, c-Met (Homo sapiens, UniProt P08581); experiment: Inhibition of c-Met phosphorylation in MKN45 cells (direct ELISA); format: cell-based; conditions: 3 h treatment, read-out: CMET ELISA IN MKN45 IC50
T1 construct: endogenous in cells; host or cells: MKN45 gastric carcinoma cells
Excerpt: The following assay is used to determine inhibition of c-Met phosphorylation.
The c-Met receptor is expressed in numerous cancer cell lines derived from tumors of epithelial origin. In MKN45 gastric carcinoma cells the c-Met gene is amplified, resulting in several-fold overexpression of the receptor and its constitutive activation. For this reason constitutively high levels of ERK1/2 are also detected in these cells, independently of HGF-added stimulation (Smolen G A, Sordella R, Muir B, Mohapatra G, Barmettler A, Archibald H, et al. Amplification of MET may identify a subset of cancers with extreme sensitivity to the selective tyrosine kinase inhibitor PHA-665752. Proc Natl Acad Sci USA 2006). We have developed a sensitive method to follow c-Met phosphorylation in these cells. In previous studies with earlier generation c-Met inhibitors, we established that the IC50s for the inhibition of c-Met phosphorylation were identical using this novel ELISA approach and standard western blot procedure, with antibodies directed against the activating autocatalysis tyrosine residues of c-MET (Tyr Y1230-34-35).
Cell treatments: MKN45 cells are seeded into wells of 96-well plates at a density of 3×10^4 cells/well in RPMI medium supplemented with 10% FBS. HA-TPR-RON expressing 293T (clone 18) cells are seeded into wells of 96-well plates at a density of 3×10^4 cells/well in DMEM medium supplemented with 10% FBS. Cells are grown for 48 h prior to treatments with compounds of interest. Inhibitors are added to the medium in triplicate wells at the indicated doses. After 3 h of treatment, media is aspirated and cells are lysed by one freeze-thaw cycle in 50 μL/well hypotonic lysis buffer (25 mM HEPES pH 7.5, 10 mM NaCl with 1 mM 4-(2-aminoethyl)benzenesulfonyl fluoride hydrochloride, 200 μM sodium orthovanadate, 1 mM sodium fluoride, 10 μg/mL of leupeptin, 10 μg/mL of aprotinin/mL, 1 μg/mL of pepstatin and 50 μg/mL Na-p-tosyl-L-lysine chloromethyl ketone hydrochloride.
Detection of phosphorylated c-Met by direct ELISA: Lysate samples (5 μL) from wells of treatment plates are transferred to 80 μL of binding buffer (25 mM HEPES pH 7.5, 200 mM NaCl) in wells of high binding white polysterene 96-well plates (Corning). After an overnight protein binding incubation at 4° C., lysates are aspirated and wells are blocked for 1 h at 37° C. in TBST supplemented with 5% BSA. Plates are incubated with the primary antibodies anti-phospho-Tyrosine (Millipore, 4G10) diluted 1/15000 in TBST supplemented with 5% BSA for 1 h at room temperature. Plates are washed 3 times on a plate washer (SkanWasher, Molecular Devises), and incubated with the reporter antibody […] (Sigma) diluted 1/15000 in TBST supplemented with 5% BSA, for 1 h at room temperature. Plates are washed 3 times with TBST using on a plate washer and subsequently incubated with chemiluminescent substrate solution (ECL, Roche). Luminescence signal is captured on a Polar Star Optima apparatus (BMG LabTech).
Average values of the triplicate samples are used to prepare IC50 curves using a 4-parameter fit model. These curves are calculated using, for example, GraFit 5.0 software. For assay standardization purpose, an internal control is included on each experimental test plate.

A549 cells = experiment: Wound healing assay in A549 cells (HGF-stimulated); format: cell-based; conditions: Homo sapiens, last dose that inhibited gap closing by more than 25%, 24 h, read-out: A549 WOUND_HEALING IC50
Protocol: Wound healing assay in A549 cells. A549 cells (ATCC) are seeded in DMEM low glucose medium complemented with 10% FBS into 24-well plates at a density of 7.5×10^4 cells/well and grown to confluence (48 h). Inhibitors were added to the medium at a range of doses (0.00032-10 uM) for 3 h at which point a gap is introduced by scraping cells with a P1000 pipette tip. Cells are then stimulated to migrate by the addition of HGF (in the form of conditioned medium from 293T cells over-expressing the human HGF gene) and the culture is continued for 24 h. […] For the purpose of standardization, a control is carried on every assay plates.

[1] = target: recombinant human c-Met/HGF receptor (Homo sapiens, UniProt P08581); experiment: In vitro receptor tyrosine kinase assay (DELFIA), c-Met/HGF receptor
Sequence of recombinant human c-Met/HGF receptor (P08581 1078-1337): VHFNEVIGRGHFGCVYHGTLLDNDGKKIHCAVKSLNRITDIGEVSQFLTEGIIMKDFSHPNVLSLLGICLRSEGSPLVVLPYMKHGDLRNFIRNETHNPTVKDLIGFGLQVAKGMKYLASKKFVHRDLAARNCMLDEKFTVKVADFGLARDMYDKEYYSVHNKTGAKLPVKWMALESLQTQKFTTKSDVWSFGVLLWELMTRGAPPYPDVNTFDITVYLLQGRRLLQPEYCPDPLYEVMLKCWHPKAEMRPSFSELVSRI

VEGF receptor KDR = target: T2, VEGF receptor KDR (Homo sapiens, UniProt P35968); experiment: In vitro receptor tyrosine kinase assay (DELFIA), VEGF receptor KDR; format: biochemical; conditions: GST-VEGFR2 806-1356, 0.6 uM ATP; read-out: VEGFR IC50
T2 construct: made in house; host or cells: Sf9 cells (Spodoptera frugiperda), baculovirus
T2 sequence (P35968 806-1356): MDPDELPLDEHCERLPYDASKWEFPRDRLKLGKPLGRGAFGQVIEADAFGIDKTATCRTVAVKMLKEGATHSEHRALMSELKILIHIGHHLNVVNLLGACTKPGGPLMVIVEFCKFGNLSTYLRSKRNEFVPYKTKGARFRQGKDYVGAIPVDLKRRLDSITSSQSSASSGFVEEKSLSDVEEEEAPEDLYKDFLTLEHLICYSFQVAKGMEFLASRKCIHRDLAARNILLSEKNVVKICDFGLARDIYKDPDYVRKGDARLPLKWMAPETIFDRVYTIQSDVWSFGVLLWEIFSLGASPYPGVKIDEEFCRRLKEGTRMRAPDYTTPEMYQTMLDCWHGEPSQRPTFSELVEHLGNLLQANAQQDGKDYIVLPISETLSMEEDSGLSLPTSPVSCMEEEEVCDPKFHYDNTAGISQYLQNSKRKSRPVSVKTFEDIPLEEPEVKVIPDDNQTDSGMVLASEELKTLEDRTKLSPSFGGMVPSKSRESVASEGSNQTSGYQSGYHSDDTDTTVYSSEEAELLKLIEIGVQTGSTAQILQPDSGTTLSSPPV
Excerpt: In the case of VEGF receptor KDR a 1.6-kb cDNA corresponding to the catalytic domain of VEGFR2 or KDR (Genbank accession number AF035121 amino acid 806 to 1356) is cloned into the Pst I site of the pDEST20 Gateway vector (Invitrogen) for the production of a GST-tagged version of that enzyme.
The GST-VEGFR2806-1356 protein is expressed in Sf9 cells (Spodoptera frugiperda) upon infection with recombinant baculovirus construct.
The supernatant is loaded onto a GST-agarose column (Sigma) equilibrated with PBS pH 7.3. Following a four column volume (CV) wash with PBS pH 7.3+1% Triton X-100 and 4 CV wash with buffer B (50 mM Tris pH 8.0, 20% glycerol and 100 mM NaCl), bound proteins are step eluted with 5 CV of buffer B supplemented with 5 mM DTT and 15 mM glutathion. […] Final GST-VEGFR2806-1356 protein preparations concentrations are about 0.7 mg/ml with purity approximating 70%.

DU145 cells = experiment: Scatter assay in DU145 cells (HGF-stimulated); format: cell-based; conditions: Homo sapiens, DU-145, last dose that created an inhibitory effect on scattering, 24 h, read-out: DU145 SCATT. INHIB IC50
Protocol: Scatter assays in DU145. The scatter assay is performed as described previously (Miura H, Nishimura K, Tsujimura A, Matsumiya K, Matsumoto K, Nakamura T, et al. Effects of hepatocyte growth factor on E-cadherin-mediated cell-cell adhesion in DU145 prostate cancer cells. Urology 2001; 58(6):1064-9) for DU145 prostate carcinoma cells with the indicated modifications. In brief, DU145 cells (ATCC) are seeded in 24-well plates at a density of 7×10^3 cells/well in MEM medium complemented with 10% FBS and cultured for 48 h, to allow the formation of small compact colonies of cells. Inhibitors are subsequently added at a range of doses (0.00032-10 uM) for 3 h. Cells are then stimulated to migrate by the addition of HGF (in the form of conditioned medium from 293T cells over-expressing the human HGF gene) and the culture is continued for another 24 h. The IC50 values is defined as the last dose that created an inhibitory effect on scattering. For the purpose of standardization a control is carried on every test plates for the DU145 scattering assays.

T1 sequence (P08581 25-1390): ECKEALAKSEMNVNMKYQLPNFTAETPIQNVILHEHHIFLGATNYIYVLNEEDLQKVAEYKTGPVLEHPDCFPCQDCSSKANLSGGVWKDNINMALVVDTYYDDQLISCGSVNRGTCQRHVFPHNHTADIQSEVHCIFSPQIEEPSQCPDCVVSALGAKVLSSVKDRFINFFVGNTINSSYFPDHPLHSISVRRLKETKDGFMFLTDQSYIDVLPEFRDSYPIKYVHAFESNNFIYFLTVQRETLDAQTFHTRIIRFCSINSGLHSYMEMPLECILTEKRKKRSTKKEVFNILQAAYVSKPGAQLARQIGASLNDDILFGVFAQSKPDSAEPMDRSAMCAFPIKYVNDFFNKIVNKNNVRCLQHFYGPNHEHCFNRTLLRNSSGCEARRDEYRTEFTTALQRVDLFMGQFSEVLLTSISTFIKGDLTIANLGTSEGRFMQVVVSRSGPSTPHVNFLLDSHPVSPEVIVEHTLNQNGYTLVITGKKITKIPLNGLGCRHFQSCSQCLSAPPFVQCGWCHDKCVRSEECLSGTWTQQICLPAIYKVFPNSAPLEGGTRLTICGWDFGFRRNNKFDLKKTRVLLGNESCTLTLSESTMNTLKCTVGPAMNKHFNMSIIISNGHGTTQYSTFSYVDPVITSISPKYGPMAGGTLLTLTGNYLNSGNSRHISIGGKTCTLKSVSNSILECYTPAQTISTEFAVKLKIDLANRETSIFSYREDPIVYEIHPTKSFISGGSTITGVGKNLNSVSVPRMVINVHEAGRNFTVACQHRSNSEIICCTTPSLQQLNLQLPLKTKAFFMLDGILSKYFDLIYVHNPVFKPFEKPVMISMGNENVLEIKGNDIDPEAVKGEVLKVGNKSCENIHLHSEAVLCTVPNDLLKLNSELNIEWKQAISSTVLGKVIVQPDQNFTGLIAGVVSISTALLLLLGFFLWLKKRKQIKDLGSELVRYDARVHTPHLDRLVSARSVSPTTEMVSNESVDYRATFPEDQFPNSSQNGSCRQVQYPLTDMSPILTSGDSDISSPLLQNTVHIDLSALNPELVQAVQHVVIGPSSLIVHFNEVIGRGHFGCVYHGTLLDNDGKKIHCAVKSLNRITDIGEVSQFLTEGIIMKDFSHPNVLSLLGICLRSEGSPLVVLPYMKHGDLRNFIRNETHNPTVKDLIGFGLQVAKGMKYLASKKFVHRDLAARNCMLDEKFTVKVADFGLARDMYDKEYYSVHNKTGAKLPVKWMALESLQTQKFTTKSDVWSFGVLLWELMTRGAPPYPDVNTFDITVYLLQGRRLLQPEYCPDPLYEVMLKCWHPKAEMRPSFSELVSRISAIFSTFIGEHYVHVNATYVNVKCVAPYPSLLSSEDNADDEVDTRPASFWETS

SMILES	IC50 (c-Met)	IC50 (A549 cells)	IC50 [1]	IC50 (VEGF receptor KDR)	IC50 (DU145 cells)
COCCNCc1ccc(-c2cc3nccc(Oc4ccc(NC(=O)NC(=O)Cc5ccccc5OC)cc4F)c3s2)cc1	500 to 1000 nM	500 to 1000 nM	< 250 nM	< 250 nM	> 1000 nM
COCCNCc1cccc(-c2cc3nccc(Oc4ccc(NC(=S)NC(=O)Cc5ccccc5)cc4F)c3s2)n1	< 250 nM	< 250 nM	< 250 nM	< 250 nM	< 250 nM
COCCNCc1cccc(-c2cc3nccc(Oc4ccc(NC(=O)C5(C(=O)Nc6ccccc6)CC5)cc4F)c3s2)c1	< 250 nM	< 250 nM	< 250 nM	< 250 nM	< 250 nM
COCCNCc1cccc(-c2cc3nccc(Oc4ccc(NC(=O)CC(=O)Nc5ccccc5)cc4F)c3s2)c1	250 to 500 nM	250 to 500 nM	< 250 nM	< 250 nM	250 to 500 nM
COCCNCCn1cc(-c2cc3nccc(Oc4ccc(NC(=O)C5(C(=O)Nc6ccc(F)cc6)CC5)cc4F)c3s2)cn1	< 250 nM	< 250 nM	< 250 nM	< 250 nM	< 250 nM
COCCNCc1ccc(-c2cc3nccc(Oc4ccc(NC(=O)CC(=O)Nc5ccccc5)cc4F)c3s2)c(F)c1	< 250 nM	> 1000 nM	< 250 nM	< 250 nM	250 to 500 nM
O=C(Cc1ccc(F)cc1)NC(=S)Nc1ccc(Oc2ccnc3cc(-c4ccc(CNC5CC5)cc4)sc23)c(F)c1	< 250 nM	250 to 500 nM	< 250 nM	< 250 nM	250 to 500 nM
O=C(Nc1ccccc1)C1(C(=O)Nc2ccc(Oc3ccnc4cc(-c5ccc(CNC6CC6)cc5)sc34)c(F)c2)CC1	< 250 nM	250 to 500 nM	< 250 nM	< 250 nM	< 250 nM
COCCNCCn1cc(-c2cc3nccc(Oc4ccc(NC(=O)C5(C(=O)Nc6ccccc6)CC5)cc4F)c3s2)cn1	< 250 nM	< 250 nM	< 250 nM	< 250 nM	< 250 nM
COCCNCCC(=O)N1CC=C(c2cc3nccc(Oc4ccc(NC(=O)CC(=O)N(C)c5ccccc5)cc4F)c3s2)CC1	< 250 nM	250 to 500 nM	< 250 nM	< 250 nM	< 250 nM
COCCNCc1cccc(-c2cc3nccc(Oc4ccc(NC(=S)NC(=O)Cc5ccc(F)cc5)cc4F)c3s2)c1 [drawing 296]	< 250 nM	250 to 500 nM	< 250 nM	< 250 nM	250 to 500 nM
COC[C@H](C)NCc1cccc(-c2cc3nccc(Oc4ccc(NC(=S)NC(=O)Cc5ccc(F)cc5)cc4F)c3s2)c1 [drawing 297]	< 250 nM	250 to 500 nM	< 250 nM	< 250 nM	< 250 nM

Now from value to compound:

IC50 (c-Met)	IC50 (A549 cells)	IC50 [1]	IC50 (VEGF receptor KDR)	IC50 (DU145 cells)	SMILES
< 250 nM	> 1000 nM	< 250 nM	< 250 nM	250 to 500 nM	COCCNC(=O)c1ccc(-c2cc3nccc(Oc4ccc(NC(=S)NC(=O)Cc5ccccc5)cc4F)c3s2)cc1
< 250 nM	> 1000 nM	< 250 nM	< 250 nM	> 1000 nM	COCCNCc1ccc(-c2cc3nccc(Oc4ccc(NC(=S)NC(=O)Cc5ccc(F)cc5)cc4F)c3s2)o1
< 250 nM	< 250 nM	< 250 nM	< 250 nM	< 250 nM	CN(C)CCOC(=O)N1CC=C(c2cc3nccc(Oc4ccc(NC(=S)NC(=O)Cc5ccccc5)cc4F)c3s2)CC1
< 250 nM	> 1000 nM	< 250 nM	< 250 nM	250 to 500 nM	CN(C)CCOC(=O)N1CC=C(c2cc3nccc(Oc4ccc(NC(=O)CC(=O)N(C)c5ccccc5)cc4F)c3s2)CC1
< 250 nM	250 to 500 nM	< 250 nM	< 250 nM	250 to 500 nM	CSCCNCc1ccc(-c2cc3nccc(Oc4ccc(NC(=S)NC(=O)Cc5ccccc5)cc4F)c3s2)cc1
< 250 nM	> 1000 nM	< 250 nM	< 250 nM	250 to 500 nM	CSCCNCc1ccc(-c2cc3nccc(Oc4ccc(NC(=S)NC(=O)Cc5ccc(F)cc5)cc4F)c3s2)cc1
< 250 nM	> 1000 nM	< 250 nM	< 250 nM	250 to 500 nM	COCCNCc1ccc(-c2cc3nccc(Oc4ccc(NC(=S)NC(=O)Cc5ccccc5)cc4F)c3s2)s1
< 250 nM	< 250 nM	< 250 nM	< 250 nM	< 250 nM	COC[C@H](C)NCc1ccc(-c2cc3nccc(Oc4ccc(NC(=O)C5(C(=O)Nc6ccccc6)CC5)cc4F)c3s2)cc1
< 250 nM	250 to 500 nM	< 250 nM	< 250 nM	< 250 nM	COCCNCCc1cccc(-c2cc3nccc(Oc4ccc(NC(=S)NC(=O)Cc5ccc(F)cc5)cc4F)c3s2)c1
< 250 nM	< 250 nM	< 250 nM	< 250 nM	< 250 nM	COCCNCCn1cnc(-c2cc3nccc(Oc4ccc(NC(=S)NC(=O)Cc5ccccc5)cc4F)c3s2)c1
< 250 nM	< 250 nM	< 250 nM	< 250 nM	< 250 nM	COCCNCCc1cccc(-c2cc3nccc(Oc4ccc(NC(=O)C5(C(=O)Nc6ccccc6)CC5)cc4F)c3s2)c1
